This note sets out measurements from patent publication US20250320246A1, “3-AZASTEROID COMPOUNDS FOR THE TREATMENT OF DISEASES RELATED TO MITROCHONDRIAL FUNCTION” (NZP UK LIMITED, priority 2022, published 2025).

For experiment [1], the system named is iNeurons from sPD patients. The experiment is described as follows: Neuronal morphology (elongation) in iNeurons from sPD patients. The format is cell-based, human. On the procedure: The fibroblasts lines and iNPC lines have previously been characterised and published in Carling et al, 2020.
Briefly, iNPCs are plated in a 6-well plate and cultured for 2 days in DMEM/F-12 medium with Glutamax™ supplemented with 1% NEAA, 2% B27 (Gibco) and 2.5 μM of DAPT. On day 3, DAPT is removed and the medium is supplemented with 1 μM smoothened agonist (SAG) and FGF8 (75 ng/ml) for additional 10 days. Neurons are replated at this stage. Subsequently SAG and FGF8 are withdrawn and replaced with BDNF (30 ng/ml), GDNF (30 ng/ml), TGF-b3 ([…]) and dcAMP (2 mM, Sigma) for 15 days, as previously described Schwartzentruber et al, 2020 and Carling et al, 2020. Dopaminergic neurons were treated with compounds at concentrations of 0.1 nM, 1 nM, 3 nM, 10 nM, 30 nM and 100 nM dosing every 3 days for the last 12 days of differentiation.
Cells are plated into 96 well plates and fixed using 4% paraformaldehyde for 30 minutes. After PBS washes cells are permeabilised using 0.1% Triton™ X-100 for 10 minutes and blocked using 5% goat serum for 1 hour. Cells are incubated with primary antibodies βIII tubulin (Millipore); activated caspase 3 (Cell Signaling); at 4° C. for 16 hours. Cells are washed using PBS-Tween® and incubated with Alexa Fluor™-conjugated secondary antibodies 488 and 568 (Invitrogen) and Hoescht (Sigma) 1 μM prior to imaging. Imaging was performed using the Opera Phenix™ high content imaging system (Perkin Elmer).
iNeurons were treated every 3 days for the last 12 days of the differentiation protocol. […] Mitochondrial reactive oxygen species generation was assessed using mitochondrial NpFR2 (probe; a kind gift from Dr Liz New, University of Sydney, Australia) at 20 μM and Hoechst stain solution at 1 μM for 30 mins at 37° C., then the dyes are removed and cells images using Opera Phenix™. Images generated from the live imaging experiments were analysed using Harmony® (Perkin Elmer software). […] We only analysed the z projection images collected from the z stacks.

For experiment [2], the system named is sporadic PD patient fibroblasts. As to the kind of experiment: Cellular ATP levels in sporadic PD patient fibroblasts, full ATP assay. The conditions noted are these: Homo sapiens, Fibroblast, 24 h, 3 sporadic PD patient fibroblasts. The format is cell-based, human. On the procedure:
Primary fibroblast cells were cultured continuously in Glucose based medium (high glucose (4500 mg/L) Dulbecco's Modified Eagle's medium (DMEM; Sigma-Aldrich) supplemented with 10% fetal bovine serum (Sigma-Aldrich), 100 IU/mL penicillin, 100 μg/mL streptomycin (Lonza), 1 mM sodium pyruvate (Sigma-Aldrich) and 50 μg/mL uridine (Sigma-Aldrich)). Unless otherwise stated, 24 hours prior to analysis, the Glucose based medium was exchanged for Galactose based medium (glucose-free DMEM (Gibco) with the same supplementation and in addition, 5 mM galactose (Sigma-Aldrich)). All cells were assessed between passage 6-10.
The ATP protocol is generally as described in Mortiboys et al 2008. Briefly, fibroblasts were cultured as and plated into white 384 well plates at a concentration of 5000 cells per well in 50 μl of media volume. The plates are left overnight in an incubator to allow the fibroblasts to adhere to the plate surface. The following morning the Glucose based medium is replaced with 25 μl of Galactose based medium. The plates were then spiked with the compounds using a ECHO 550 liquid handling system. The wells were dosed to provide an 8-point concentration range of 0.06 nM-300 nM of compound. After dosing the wells are topped up with a further 25 μl of Galactose based medium and then left in an incubator for 24 hours. Following this incubation, the medium is removed from the plate and the wells are washed twice with sterile PBS. The wells are filled with 25 μl of Sterile PBS followed by 12.5 μl of Lysis solution from the ATPlite™ Luminescence ATP detection assay system (Perkin Elmer), including 16 cell free wells to use as blank controls. The plate is then placed on a rotary shaker for 5 mins at 700 rpm. Following the shaking 12.5 μl of ATP substrate solution (Perkin Elmer) is added to each well and a further 5 min of shaking. The plate is then placed in darkness for 10 minutes prior to reading. Using a PHERAStar® plate reader, luminescence intensity is recorded. Following the ATP assay the plates are immediately assayed for DNA content in a CyQUANT® assay.
Immediately following The ATP assay DNA content is assessed with the CyQUANT® NF Cell Proliferation Assay Kit (ThermoFisher). CyQUANT® buffer is prepared immediately before the assay and is comprised of 1 μl CyQUANT® dye per ml×1 HBSS solution. 12.5 μl of CyQUANT® buffer is added to each well. Plate left in incubator for 1 hour then read on a PHERAStar© Plate reader with excitation at 497 nm and emission at 520 nm.
ATP Quantification for each well is determined using the following formula: […]
After the assays had been repeated in triplicate per line and compound the data was then inputted into Graph pad Prism 7 software suite where a dose response curve is generated using the default “[Agonist] vs response(three parameters)” equation.
From this EC50 values, lowest response and maximal response were taken and used to calculate the Geometric mean between the 5 different lines assessed.

Experiment [3] has as its system mitochondrial respiratory chain complex I. The experiment is described as follows: Complex I assay in mouse whole brain homogenate after IV dosing. The format is in vivo. The conditions noted are these: wild type mouse, 2 mg/kg IV. Here is the method: Ex vivo mice brain was homogenated in a buffer of 250 mM sucrose, 20 mM HEPES, 3 mM EDTA, pH 7.5 at 4° C. Homogenisation was carried out using a Dounce homogenizer, for cortex samples, and by repetitive passage through a 0.5 mm syringe for isolated striatum. Samples were then incubated with 30 μl of detergent from the AbCam colorimetric Complex I assay kit on ice for 20 minutes. Samples are then centrifuged at 13,000 rpm for 30 mins. Triplicate samples per condition were blocked using the kit blocking buffer on the AbCam colorimetric Complex I assay kit plate for 3 hours. Samples are then washed using the kit wash buffer 3 times before the addition of the kit assay buffer containing NADH and colorimetric dye. The assay plate is read on a plate reader in a kinetic assay programme reading 450 nm in a 30 second interval for 50 minutes.
By 12 hours post injection complex I activity began to reduce again and was elevated by 98% above control. By 24 hours post injection, complex I activity was still elevated by 35% above control levels.

Regarding `C[C@H](CCCC(=O)O)[C@H]1CC[C@H]2[C@@H]3[C@@H](O)C[C@@H]4CNCC[C@]4(C)[C@H]3CC[C@]12C.Cl` [Compound 28b, 3-Aza-7β-hydroxy-25-homo-5β-cholan-25-oic acid hydrochloride], the “neuronal morphology, in words” value in experiment [1] (sPD derived dopaminergic neurons) was “improving neuronal morphology”. Further, in experiment [1] (sPD patient iNeurons treated, untreated sPD patients 48), the “Neuronal morphology (elongation; % controls)” value was determined as 68 % controls. The EC50 in experiment [2] (8-point range 0.06 nM-300 nM) is 32.9 nM. Besides, the Emax at 0.3 µM in experiment [2] (max response with highest dose of compound (300 nM), read-out: ATP % of vehicle, top %) is 138%. Further, the activity at 60 pM in experiment [2] (max response with lowest dose of compound (0.06 nM), read-out: ATP % of vehicle, bottom %) worked out at 94.6%. Also, the “complex I activity” value in experiment [3] (4 and 8 hours post injection) is “remained elevated to a similar extent”. In experiment [3] (1 hour after dosing), the “complex I activity increase” value turned out to be 125%. The “complex I activity elevated above control” value in experiment [3] (12 hours post injection) turned out to be 98%. Also, the “complex I activity elevated above control levels” value in experiment [3] (24 hours post injection) was determined as 35%.
